pEC50: −log10 of the molar value. Like-named read-outs stand apart in the source and are kept apart here.
Assays:
Zluc cells = test: cytotoxicity evaluation (CellTiter-Blue Cell Viability Assay); conditions: read-out: HCV Replicon CC50; Zluc cells, CellTiter-Blue
HCV genotype 1b replicon = test: HCV Replicon Assay; type: cell-based; conditions: Zluc cells (Huh-7-derived, HCV genotype 1b replicon, luciferase reporter), 72 hours, read-out: HCV Replicon EC50
Procedure: Huh-7-derived cell line (Zluc) that harbors an HCV genotype 1b replicon and a luciferase reporter gene was grown in Dulbecco's Modified Eagle Medium (DMEM) supplemented with 10% fetal bovine serum, 2 mM GlutaMAX, 1% MEM nonessential amino acids, 100 IU/mL penicillin, 100 μg/mL streptomycin, and 0.5 mg/mL Geneticin® (G418). For dose response testing the cells were seeded in 96-well plates at 7.5×10^3 cells per well in a volume of 50 μL, and incubated at 37° C./5% CO2. Drug solutions were made up freshly in Huh-7 media as 2× stocks. Ten additional 5-fold dilutions were prepared from these stocks in DMEM without G418. At least three hours after Zluc cells were seeded, drug treatment was initiated by adding 50 μL of drug dilutions to the plates in duplicate. Final concentrations of drug ranged from 100 μM to […]. Cells were then incubated at 37° C./5% CO2. Alternatively, compounds were tested at two concentrations (1 μM and 10 μM). […] For this, media was removed from the plates via gentle tapping. Fifty microliters of ONE-glo luciferase assay reagent was added to each well. The plates were shaken gently for 3 min at room temperature and luminescence was measured on a Victor^3 V 1420 multilabel counter (Perkin Elmer) with a 1 second read time using a 700 nm cut-off filter. The EC50 values were calculated from dose response curves from the resulting best-fit equations determined by Microsoft Excel and XLfit 4.1 software. When screening at two fixed concentrations, the results were expressed as % inhibition at 1 μM and 10 μM.

fresh human hepatocytes = test: Release of active metabolite in fresh human hepatocytes; type: in vitro ADME; conditions: 10 μM compound; for FHH TP Cmax: fresh human hepatocytes; for FHH TP AUC: fresh human hepatocytes, 6, 24 and 48 hours
Procedure: Plates of fresh human and mouse hepatocytes were obtained on ice. The medium was removed and replaced with hepatocyte culture medium (William's E supplemented with penicillin-streptomycin, 1% L-glutamine, 1% insulin-transferrin-selenium and 0.1 μM Dexamethasone (Invitrogen) or with Invitro GRO HI medium complemented with Torpedo antibiotics (Celsis)). Cells were left overnight in an incubator at 37° C. to acclimatize to culture and the medium.
Hepatocyte incubations were conducted at a final volume of 0.5 mL hepatocyte culture medium/well (0.8 million cells/well for human and 0.5 million cells/well for mouse; 12 well plate no overlay, collagen coat). Culture medium from overnight incubation of cells was removed and replaced with fresh medium, pre-warmed to 37° C., containing 10 μM of test compound from a stock solution in DMSO (final DMSO concentration was 0.1%). At each specific time point, incubation medium was removed and cell monolayers were carefully washed two times with ice-cold PBS. Following the last wash, all PBS was carefully removed and 1.0 mL of extraction solution (ice-cold 70% methanol/30% water) added. Cells were scraped off and suspended in the extraction solution, transferred to 2 mL polypropylene microfuge tubes and intracellular contents extracted overnight at −20° C.
After the overnight treatment the cellular extracts were prepared by centrifugation at 16,000×g for 10 min to remove cellular debris. The remaining sample was then dried using a refrigerated centrivap concentrator. Dry extracts were reconstituted in 1000 μL of HPLC-grade water and centrifuged at 16,000×g for 10 min. Aliquots (100 μL each) of the supernatant were transferred into a 96 well plate and internal standard (4 ng/mL final concentration) was added as the internal standard (IS) for LC-MS/MS analysis.
The incubation time points were 6, 24 and 48 hours for human hepatocytes and 1, 4, 8, 12 and 24 hours for mouse hepatocytes.

in vitro = conditions: human, HCV Replicon CC50, Zluc cells, CellTiter-Blue

Compound	CC50 (Zluc cells) [µM]	pEC50 (HCV genotype 1b replicon)	FHH TP Cmax (fresh human hepatocytes)	FHH TP AUC (fresh human hepatocytes)	pEC50 (HCV genotype 1b replicon; Hepatitis C virus, 72 h)	CC50 (in vitro) [µM]
CCOc1nc(N)nc2c1ncn2[C@@H]1O[C@@H]2COP(=O)(OCCSC(=O)C(C)(C)COC(C)=O)O[C@H]2[C@@]1(C)OC(C)=O (single isomer, unassigned; diastereomer 1) [Compound 19 Diastereomer 1]	< 50	> 6.60				
COc1nc(N)nc2c1ncn2[C@@H]1O[C@@H]2COP(=O)(OCC(=O)OC(C)C)O[C@H]2[C@@]1(C)F (single isomer, unassigned; diastereomer 1) [Compound 26 Diastereomer 1]			BLD^a	BLD^a		
CCOc1nc(N)nc2c1ncn2[C@@H]1O[C@@H]2COP(=O)(OCCC(=O)OC(C)C)O[C@H]2[C@@]1(C)F (stereo partly drawn) [Compound 21]					> 6.60	> 50
CCOc1nc(N)nc2c1ncn2[C@@H]1O[C@@H]2COP(=O)(OCCSC(=O)C(C)(C)COC(C)=O)O[C@H]2[C@@]1(C)OC(C)=O (single isomer, unassigned; diastereomer 2) [Compound 19 Diastereomer 2]	< 50	> 6.60				
COc1nc(N)nc2c1ncn2[C@@H]1O[C@@H]2COP(=O)(OCC(=O)OC(C)C)O[C@H]2[C@@]1(C)F (stereo partly drawn) [Compound 26]					> 6.60	> 50
CCOc1nc(N)nc2c1ncn2[C@@H]1O[C@@H]2COP(=O)(OC[C@H](C)NC(=O)OCC(C)C)O[C@H]2[C@@]1(C)F (single isomer, unassigned; diastereomer 1) [Compound 12 Diastereomer 1]	> 50	> 6.60				
CCOC(=O)CCCOP1(=O)OC[C@H]2O[C@@H](n3cnc4c(OC)nc(N)nc43)[C@](C)(O)[C@@H]2O1 (stereo partly drawn) [Compound 29]	< 50	> 6.60				
CCOc1nc(N)nc2c1ncn2[C@@H]1O[C@@H]2COP(=O)(OCCCNC(=O)[C@H](O)C(C)(C)CO)O[C@H]2[C@@]1(C)O (stereo partly drawn) [Compound 39]					> 6.60	< 50
CC(=O)OCC(C)(C)C(=O)SCCOP1(=O)OC[C@H]2O[C@@H](n3cnc4c(=O)[nH]c(N)nc43)[C@](C)(F)[C@@H]2O1 (single isomer, unassigned; diastereomer 2) [Compound 18 Diastereomer 2]	< 50	> 6.60				
COC(=O)c1ccccc1COP1(=O)OC[C@H]2O[C@@H](n3cnc4c(OC)nc(N)nc43)[C@](C)(O)[C@@H]2O1 (stereo partly drawn) [Compound 33]					> 6.60	< 50
CC(=O)OCC(C)(C)C(=O)SCCOP1(=O)OC[C@H]2O[C@@H](n3cnc4c(=O)[nH]c(N)nc43)[C@](C)(F)[C@@H]2O1 (single isomer, unassigned; diastereomer 1) [Compound 18 Diastereomer 1]	> 50	6.00 to 6.60				
COc1nc(N)nc2c1ncn2[C@@H]1O[C@@H]2COP(=O)(OCC(=O)OCc3ccccc3)O[C@H]2[C@@]1(C)O (stereo partly drawn) [Compound 27]					> 6.60	< 50
CCOc1nc(N)nc2c1ncn2[C@@H]1O[C@@H]2COP(=O)(OCCC(=O)OC(C)C)O[C@H]2[C@@]1(C)O (single isomer, unassigned; diastereomer 1) [Compound 22 Diastereomer 1]	> 50	> 6.60	44 pmol/mill cells	1247 pmol · hr/mill cells		
CCOC(=O)[C@@H](C)OP1(=O)OC[C@H]2O[C@@H](n3cnc4c(OC)nc(N)nc43)C(C)(O)[C@@H]2O1 (stereo partly drawn) [Compound 30]					5.00 to 6.00	> 50
CCOC(=O)COP1(=O)OC[C@H]2O[C@@H](n3cnc4c(OCC)nc(N)nc43)[C@](C)(F)[C@@H]2O1 (single isomer, unassigned; diastereomer 2) [Compound 7 Diastereomer 2]		> 6.60				
COc1nc(N)nc2c1ncn2[C@@H]1O[C@@H]2COP(=O)(OCCSSCCO)O[C@H]2[C@@]1(C)O (stereo partly drawn) [Compound 37]					> 6.60	< 50
CC(C)(CO)C(=O)SCCOP1(=O)OC[C@H]2O[C@@H](n3cnc4c(=O)[nH]c(N)nc43)[C@](C)(F)[C@@H]2O1 (single isomer, unassigned; diastereomer 2) [Compound 17 Diastereomer 2]	< 50	> 6.60				
COc1nc(N)nc2c1ncn2[C@@H]1O[C@@H]2COP(=O)(OCC(=O)OC(C)C)O[C@H]2[C@@]1(C)O (stereo partly drawn) [Compound 28]					> 6.60	< 50
CC(C)(CO)C(=O)SCCOP1(=O)OC[C@H]2O[C@@H](n3cnc4c(=O)[nH]c(N)nc43)[C@](C)(F)[C@@H]2O1 (single isomer, unassigned; diastereomer 1) [Compound 17 Diastereomer 1]	> 50	6.00 to 6.60				
CCOC(=O)C[C@@H](C)OP1(=O)OC[C@H]2O[C@@H](n3cnc4c(OC)nc(N)nc43)[C@](C)(O)[C@@H]2O1 (stereo partly drawn) [Compound 31]					6.00 to 6.60	> 50
CCOc1nc(N)nc2c1ncn2[C@@H]1O[C@@H]2COP(=O)(OCCCNC(=O)[C@@H]3OC(C)(C)OCC3(C)C)O[C@H]2[C@@]1(C)O (stereo partly drawn) [Compound 38]					> 6.60	> 50
CCOC(=O)OC(C)OP1(=O)OC[C@H]2O[C@@H](n3cnc4c(OC)nc(N)nc43)[C@](C)(O)[C@@H]2O1 (stereo partly drawn) [Compound 34]					> 6.60	< 50
CCOc1nc(N)nc2c1ncn2[C@@H]1O[C@@H]2COP(=O)(OCCSC(=O)C(C)(C)CO)O[C@H]2[C@@]1(C)OC(C)=O (single isomer, unassigned; diastereomer 1) [Compound 16 Diastereomer 1]	< 50	> 6.60				
CCOC(=O)N[C@@H](C)COP1(=O)OC[C@H]2O[C@@H](n3cnc4c(OCC)nc(N)nc43)[C@](C)(F)[C@@H]2O1 (stereo partly drawn) [Compound 11]					> 6.60	> 50
CCOC(=O)CCCOP1(=O)OC[C@H]2O[C@@H](n3cnc4c(OC)nc(N)nc43)[C@](C)(O)[C@@H]2O1 (stereo partly drawn) [Compound 25]					6.00 to 6.60	> 50
CCOc1nc(N)nc2c1ncn2[C@@H]1O[C@@H]2COP(=O)(OC[C@H](NC(=O)OC)C(=O)OC(C)C)O[C@H]2[C@@]1(C)F (stereo partly drawn) [Compound 15]			36 pmol/mill cells	1335 pmol · hr/mill cells	> 6.60	> 50
COc1nc(N)nc2c1ncn2[C@@H]1O[C@@H]2COP(=O)(OCC(=O)OC(C)C)O[C@H]2[C@@]1(C)OC(C)=O (stereo partly drawn) [Compound 32]					> 6.60	< 50

Source: US9296778B2, “3′,5′-cyclic phosphate prodrugs for HCV infection” (Idenix Pharmaceuticals, Inc., priority 2012, dated 2016)
